According to article PMC4552634, “A New Set of Chemical Starting Points with Plasmodium falciparum Transmission-Blocking Potential for Antimalarial Drug Discovery” (PLoS ONE, 2015):
Where two headings read alike, the source gives them in different places.

Legend:
[1] = tested on: P. falciparum asexual stages; settings: TCAMS data, cited from earlier work
[2] = Cytotoxicity in HepG2 cells (intracellular ATP, ATPlite, 48 h); type: cell-based, human; settings: human, HepG2 cells
[3] = tested on: P. falciparum stage V gametocytes; assay: Gametocytocidal ATP bioluminescence assay (single point 5 μM and 1 μM, dose-response); type: cell-based, Plasmodium falciparum; settings: for Ratio IC50 HepG2/IC50 P. falciparum: IC50 HepG2 divided by IC50 P. falciparum gametocytes
[4] = tested on: luciferase reaction (BacTiter-Glo); assay: Interference assay (inhibition of the BacTiter-Glo luciferase reaction); type: biochemical; design: concentration or dose not given beside the values; settings: ATP interference assay
Experimental: To discard possible false-positive results, we performed an interference assay in parallel. […] […]. The ATP solution was made by dissolving ATP powder (ATP standard from the ATPlite 1 step assay kit, reference 6016731, Perkin Elmer) in culture medium. The positive control used was the Luciferase Inhibitor I Calbiochem (Merck, 119113) at 100 μM.

HepG2 cells = assay: Cytotoxicity in HepG2 cells (intracellular ATP, ATPlite, 48 h); type: cell-based, human; settings: HepG2 cells; IC50 per ratio column head; unit inferred
[5] = tested on: P. falciparum stage V gametocytes; assay: microbe, parasite or virus in culture; design: BacTiter-Glo ATP luminescence viability of purified stage V gametocytes in 384-well plates, per cent inhibition versus DMSO; settings: Plasmodium falciparum, 48 h, read-out: % Inhibition
[6] = asexual stages, read-out: IC50 asexual
[7] = IC50 per ratio column head, unit inferred, read-out: Cytotoxicity in HepG2
[8] = Plasmodium falciparum, P. falciparum gametocytes, average, read-out: IC50 Pf Gametocytes average, IC50 (µM) average
[9] = sexual stages (gametocytes), dose-response, read-out: IC50 sexual
[10] = P. falciparum asexual stages, read-out: IC50 (µM) Pf asexual stages
[11] = HepG2, 48 h exposure, intracellular ATP, read-out: IC50 (μM) Cytotoxicity HepG2
[12] = Plasmodium falciparum, sexual stages (gametocytes), dose-response, read-out: IC50 sexual
[13] = P. falciparum gametocytes, average, read-out: IC50 Pf Gametocytes average, IC50 (µM) average

% Control luminiscence [4] [%] | Structure (SMILES) | IC50 [1, 6] [µM] | IC50 at 48 h [2, 7] [µM] | Ratio IC50 HepG2/IC50 P. falciparum [3] | IC50 [3, 8] [µM] | IC50 [3, 9] [µM] | IC50 ([2]; IC50 per ratio column head, unit inferred) [nM] | IC50 ([3]; Plasmodium falciparum, read-out: IC50 Pf Gametocytes average, IC50 (µM) average) [µM] | IC50 [1, 10] [µM] | IC50 at 48 h [2, 11] [µM] | IC50 [3, 12] [µM] | IC50 (HepG2 cells) [nM] | IC50 [3, 13] [µM] | inhibition at 5 µM [5] [%]
100 | COc1ccc(C[C@H](N)C(=O)N[C@H]2[C@@H](O)[C@H](n3cnc4c(N(C)C)ncnc43)O[C@@H]2CO)cc1 [TCMDC-123493] | 0.174 | 2.95 | 5 | 0.56 | 0.563 | – | – | – | – | – | – | – | –
100 | [O-][s+]1c(Cl)c(-c2ccc(Cl)cc2)c2ccc(Cl)cc21 (stereo not shown) [TCMDC-124011] | 0.993 | 12.8 | – | 0.02 | – | – | – | – | – | – | – | – | –
100 | CCOc1ccc(-c2nonc2NC(=O)c2cccc(Cl)c2)cc1OCC [TCMDC-125200] | 0.147 | > 25 | – | 0.84 | – | – | – | 0.15 | – | – | – | – | –
100 | Cc1cccnc1Nc1nc(-c2ccccn2)cs1 [TCMDC-125846] | 0.687 | 3.02 | 30 | 0.1 | – | – | – | – | – | – | – | – | –
100 | S=C(NN=Cc1ccccn1)Nc1ccc2c(c1)OCCO2 [TCMDC-132009] | 1.05 | 3.28 | 4 | 0.83 | – | – | – | – | – | – | – | – | –
100 | Cc1cccc2nc(-c3cccc(-c4cccc(CNCCN5CCNCC5)c4)c3)[nH]c12 [TCMDC-132873] | 0.97 | 7.76 | 16 | 0.5 | 0.497 | – | – | – | – | – | – | – | –
100 | COc1cc(-c2cc(-c3ccc(S(C)(=O)=O)cc3)cnc2N)ccc1O [TCMDC-133343] | 0.101 | > 25 | – | 1.24 | – | – | – | 0.1 | – | 1.24 | – | – | –
100 | NC1CCN(Cc2ccc(-c3ccc(-c4nc5cc(F)ccc5[nH]4)cc3)cc2)C1 (stereo not shown) [TCMDC-133872] | 0.184 | 7.25 | 9 | 0.83 | – | – | – | 0.18 | 7 | 0.827 | – | – | –
100 | CCCCCCCN1CC[C@@H](CCCc2ccnc3ccc(OC)cc23)[C@@H](CCN)C1 [TCMDC-139278] | 0.748 | – | 11 | – | 0.267 | – | – | – | – | – | 2980 | 0.27 | –
93 | O=C(Nc1ccc(Oc2ccccc2)cc1)N(CCN1CCCC1)Cc1ccc(-c2ccc(CN3CCNCC3)cc2)cc1 [TCMDC-139652] | 0.892 | – | 7 | – | 1.01 | – | – | – | – | – | 7080 | 1.02 | –
98 | CC(Cc1ccc(CNC(=O)c2ccc(CC(C)NCCc3cccc(Cl)c3)cc2)cc1)NCCc1cccc(Cl)c1 (stereo not shown) [TCMDC-139659] | 0.696 | – | 5.53 | – | – | – | – | – | – | – | 3150 | 0.57 | –
100 | CC(Cc1ccc(C(=O)Nc2ccc(CC(C)NCCc3cccc(Cl)c3)cc2)cc1)NCCc1ccc(C(F)(F)F)cc1 (stereo not shown) [TCMDC-139790] | 0.57 | – | 11 | – | 0.307 | – | – | – | – | – | 3300 | 0.31 | –
100 | CC(CCCCCC(=O)Nc1ccc(CC(C)NCCc2cccc(Cl)c2)cc1)NCCc1cccc(Cl)c1 (stereo not shown) [TCMDC-139800] | 0.948 | – | 7.38 | – | 0.433 | – | – | – | – | – | 3200 | 0.43 | –
94 | CCCCCCCN1CC[C@@H](CCCc2ccnc3ccc(OCCN4CCNCC4)cc23)[C@@H](CC)C1 [TCMDC-139817] | 0.771 | – | 12 | – | 0.567 | – | – | – | – | – | 6750 | 0.57 | –
100 | O=C(/C=C/c1ccc(Cl)c(Cl)c1)N1CCC(CCN2CCC(c3c[nH]c4cnccc34)CC2)CC1 [TCMDC-140136] | 0.119 | – | 36 | – | – | – | – | – | – | – | 7210 | 0.2 | –
100 | CC(C)CNCc1cccc(-c2ccc(CN(CCCN3CCN(C)CC3)C(=O)/C=C/c3ccccc3)cc2)c1 [TCMDC-140545] | 0.857 | – | 11 | – | – | – | – | – | – | – | 6650 | 0.63 | –
100 | CC(C)CNCc1ccc(-c2ccc(CN(CCCN3CCN(C)CC3)C(=O)/C=C/c3ccccc3)cc2)cc1 [TCMDC-140546] | 0.917 | – | 7 | – | 1 | – | – | – | – | – | 6990 | 1 | –
100 | CC(C)CNCc1ccc(-c2cccc(CN(CCN(C)C)C(=O)CCC3CCCC3)c2)cc1 [TCMDC-140553] | 0.809 | – | 10 | – | – | – | – | – | – | – | 5500 | 0.54 | –
100 | CN1CCN(CCCN(Cc2cccc(-c3cccc(CNC4CCCC4)c3)c2)C(=O)CCC2CCCC2)CC1 [TCMDC-140555] | 0.675 | – | 9 | – | 0.807 | – | – | – | – | – | 7500 | 0.81 | –
100 | CC(C)CNCc1ccc(-c2ccc(CN(CCCN3CCN(C)CC3)C(=O)CCC3CCCC3)cc2)cc1 [TCMDC-140559] | 1.05 | – | 10 | – | – | – | – | – | – | – | 5390 | 0.54 | –
100 | CN1CCN(CCCN(Cc2ccc(-c3ccc(CNC4CCCC4)cc3)cc2)C(=O)CCC2CCCC2)CC1 [TCMDC-140560] | 0.886 | – | 11 | – | 0.535 | – | – | – | – | – | 6000 | 0.53 | –
96 | CC(C)CNCc1cccc(-c2cccc(CN(CCCN3CCN(C)CC3)C(=O)NC3CCCCC3)c2)c1 [TCMDC-140633] | 0.761 | – | 9 | – | 1.78 | – | – | – | – | – | 16800 | 1.78 | –
100 | CC(C)CC(=O)N(Cc1ccc(-c2ccc(CNC3Cc4ccccc4C3)cc2)cc1)C1CCNCC1 [TCMDC-141449] | 1.17 | – | 10 | – | 0.633 | – | – | – | – | – | 6200 | 0.63 | –
100 | O=C(COc1ccccc1)N(Cc1ccc(-c2ccc(CNC3Cc4ccccc4C3)cc2)cc1)C1CCNCC1 [TCMDC-141450] | 1.01 | – | 8 | – | 0.987 | – | – | – | – | – | 7800 | 0.99 | –
95 | CN1CCC(C(=O)N(Cc2ccc(-c3ccc(CNCCc4ccccc4)cn3)cc2)C2CCN(Cc3ccccc3)CC2)CC1 [TCMDC-141552] | 0.787 | – | 10 | – | 0.897 | – | – | – | – | – | 9270 | 0.9 | –
100 | CCN(CC)CCN(Cc1ccc(-c2ccc(C(F)(F)F)cc2)cc1)C(=O)c1ccc(-c2ccc(NC(=O)OC)cc2C)cc1 [TCMDC-141558] | 0.929 | – | 1.46 | – | 3.71 | – | – | – | – | – | 5400 | 3.71 | –
100 | Cc1cc(F)ccc1-c1nc(NCC(O)CNCCc2ccccc2)nc2c1ccc(=O)n2-c1c(F)cccc1F (stereo not shown) [TCMDC-141784] | 0.539 | – | 37 | – | – | – | – | – | – | – | 8470 | 0.23 | –
100 | O=C(Nc1cccc(Oc2ccccc2)c1)N[C@H]1CCN(Cc2ccc(OCCCN3CCCCC3)cc2)C1 [TCMDC-141785] | 0.724 | – | 3 | – | – | – | – | – | – | – | 3520 | 1.13 | –

Structure (SMILES) | % Control luminiscence [4] [%] | IC50 [1, 6] [µM] | IC50 at 48 h [2, 7] [µM] | Ratio IC50 HepG2/IC50 P. falciparum [3] | IC50 [3, 8] [µM] | IC50 [3, 9] [µM] | IC50 ([2]; IC50 per ratio column head, unit inferred) [nM] | IC50 ([3]; Plasmodium falciparum, read-out: IC50 Pf Gametocytes average, IC50 (µM) average) [µM] | IC50 [1, 10] [µM] | IC50 at 48 h [2, 11] [µM] | IC50 [3, 12] [µM] | IC50 (HepG2 cells) [nM] | IC50 [3, 13] [µM] | inhibition at 5 µM [5] [%]
Cl.c1ccc2c(NCCCCCCNc3c4ccccc4nc4ccccc34)c3ccccc3nc2c1 [TCMDC-124285] | 100 | 0.753 | – | 28 | – | 0.247 | 7000 | 0.25 | – | – | – | – | – | –
CC[C@H]1CN2CCc3cc(OC)c(OC)cc3[C@@H]2C[C@@H]1C[C@H]1NCCc2cc(OC)c(OC)cc21 [TCMDC-125531] | 95 | 0.214 | 21 | – | 0.35 | – | – | – | 0.21 | 21 | 0.347 | – | – | –
Cc1cccc2[nH]cc(C3CCN(CC4CCC(NC(=O)/C=C/c5ccc(Cl)c(Cl)c5)CC4)CC3)c12 (stereo not shown) [TCMDC-140137] | 100 | 0.163 | – | 2 | – | 1.45 | – | – | – | – | – | 2950 | 1.45 | –
COc1ccc2c(NN=Cc3ccc(OC)c4ccccc34)cc(C)nc2c1 [TCMDC-142218] | 97 | 0.599 | – | 10 | – | 0.773 | – | – | – | – | – | 7860 | 0.77 | 97.5
